Where two headings read alike, the source gives them in different places.
Legend:
longissimus muscle = conditions: for L* day 2 / a* day 2 / b* day 2 / pH* day 2: 24 hours after slaughter; for L* day 1 / a* day 1 / b* day 1: day of slaughter
Experimental: (§1) The trial was conducted in the grower-finisher unit 1 and 2 of Cargill Innovation Center Velddriel, The Netherlands. Pigs were allocated with 64 days of age. A randomized block design was used using 6 treatments divided over 48 pens by using 8 weight blocks in total. A pen was the experimental unit. Each pen contained 4 animals. Barrows and gilts were equally distributed among treatments. The experiment consisted of a 3×2 factorial design with three different levels of Bolifor™ CNFR (calcium nitrate) and with and without heat stress, with 8 replications per treatment (Table 1). During phase 1 (day 0 to day 24, i.e., d0-24) a common diet was fed. In phase 2 (d24-56) and phase 3 (d56-101) pigs were fed one of the 6 experimental diets (pellet form).
At slaughter, meat samples were taken to measure meat color. Color was evaluated at the longissimus muscle for L* (lightness), a* (redness), and b* (yellowness) values using a Minolta spectrophotometer. The first measurement was taken 3 hours postmortem and the second measurement 24 hours after first measurement. At the time of the 2nd color measurement, pH was also measured.

[1] = young piglets
[2] = for Carcass yield: HCW divided by live weight
Experimental: as §1
On day 83 of the trial one pig per pen was removed and transported to a commercial processing plant. On day 102, pigs were weighed and transported to a commercial processing plant (Compaxo, Zevenaar, The Netherlands). Each pig received an ear tag according to pen number to allow for data retrieval by pen and carcass data collection at the packing plant. Hot carcass weights (HCW) were measured immediately after evisceration and each carcass was evaluated for backfat, loin depth, and lean percentage. Fat depth and loin depth were measured with an optical probe inserted between 3rd and 4th last rib. Lean percentage was provided from the packing plant by using a proprietary equation. Percentage yield was calculated by dividing HCW by live weight obtained before transport to the packing plant.
Temperature, humidity and ventilation were automatically controlled. During phase 1 (from experimental day 0 until 24) pigs were not submitted to heat stress conditions. From experimental day 32 onwards pigs in Unit 2 were exposed to heat stress conditions (total period length of 66 days). During this period of heat stress the temperature was raised to 30° C. (from 8 AM-6 PM) and decreased to 26° C. from 6 PM-8 AM. During the heat stress period the relative humidity was kept at 80% in Unit 2 and the minimum ventilation was adjusted according to the body weight of the pigs.

[3] = Experimental: as §1
Feed intake and body weight were measured at day 0, 24, 39, 59, 83 and 101. Ultrasound measurements were made at day 24, 59 and 101. To get more insight on metabolic defenses when pigs are submitted to heat stress, urine samples were taken at experimental day 84 (105 kg average BW) in the morning from the control animals (16 animals) in the heat stress group and the non-heat stressed group to measure pH, and calcium and phosphorus content. The pH was measured right after collection. During the first three weeks of heat stress skin temperature was measured daily with an infrared device (Testo 845). From 3 weeks onwards, skin temperature was measured weekly.
For comparison of the different treatments, the parameters ADG, ADFI and Feed conversion ratio (FRC) (all normally distributed) were subjected to Mixed Model analysis, using SAS JMP (Version 9.0, SAS Institute Inc., Cary, NC, 2008) according to the following statistical model: Yijk=μ+αi+βj+(αβ)ij+Sexk+δi1+BW24m+εijklm Where, • μ=population mean; • αi=main effect of temperature/room i (A), i=1, 2; • βj=main effect of calcium nitrate level j (B), j=1, 2, 3; • Sex1=random effect of sex, 1=barrow, gilt; • BW24m=BW at day 24 (covariable) • (αβ)ij is the interaction effect of A and B; for each j and for each i • δik˜Niid(0, s^2a) is the whole plot (block) error, k=1, 2, . . . , 8; • εijk˜Niid(0, s^2e) is the sub plot (pen) error, k=1, 2, . . . , 8. Linear and quadratic contrast for calcium nitrate level was tested. Differences between treatment means were assumed to be significant based on the probability of P<0.05 (Student t-test); unless other probability value is stated.

[4] = cited from earlier work
[5] = heat stress, nitrate 0.063% in diet
[6] = heat stress, nitrate 0.1% in diet
[7] = normal temperature, nitrate 0.063% in diet
[8] = normal temperature, nitrate 0.1% in diet
[9] = 0.063% nitrate inclusion in feed
[10] = grower-finisher pigs, nitrate in the water

Structure (SMILES): O=[N+]([O-])[O-].O=[N+]([O-])[O-].[Ca+2] [Nitrate, calcium nitrate]
- L* day 2 (longissimus muscle; [5]): 55.5
- a* day 2 (longissimus muscle; [5]): 9.5
- b* day 2 (longissimus muscle; [5]): −0.4
- pH* day 2 (longissimus muscle; [5]): 5.36
- L* day 2 (longissimus muscle; [6]): 55.1
- a* day 2 (longissimus muscle; [6]): 9.8
- b* day 2 (longissimus muscle; [6]): −0.7
- pH* day 2 (longissimus muscle; [6]): 5.35
- L* day 2 (longissimus muscle; [7]): 53.5
- a* day 2 (longissimus muscle; [7]): 9.8
- b* day 2 (longissimus muscle; [7]): −1.0
- pH* day 2 (longissimus muscle; [7]): 5.60
- L* day 2 (longissimus muscle; [8]): 53.7
- a* day 2 (longissimus muscle; [8]): 9.9
- b* day 2 (longissimus muscle; [8]): −0.9
- pH* day 2 (longissimus muscle; [8]): 5.58
- L* day 1 (longissimus muscle; [5]): 43.1
- a* day 1 (longissimus muscle; [5]): 7.0
- b* day 1 (longissimus muscle; [5]): −1.5
- L* day 1 (longissimus muscle; [6]): 42.5
- a* day 1 (longissimus muscle; [6]): 7.1
- b* day 1 (longissimus muscle; [6]): −1.6
- L* day 1 (longissimus muscle; [7]): 42.5
- a* day 1 (longissimus muscle; [7]): 7.3
- b* day 1 (longissimus muscle; [7]): −1.5
- L* day 1 (longissimus muscle; [8]): 43.0
- a* day 1 (longissimus muscle; [8]): 7.2
- b* day 1 (longissimus muscle; [8]): −1.4
- parameter a* at day 2 with increasing level of calcium nitrate in the diet (longissimus muscle; main effect of nitrate level, P=0.012): linearly increased
- pH values in longissimus dorsi, main effect of nitrate (longissimus muscle; pig, in vivo): no significant effects
- adverse effects on performance ([1]; feed dose titration 0.2, 0.4, 0.6, 0.8 and 1.0% calcium nitrate): no adverse effects
- met-hemoglobin ([1]; highest level of calcium nitrate inclusion): stayed well within levels considered as safe
- carcass yield, rank among treatments [2, 9]: highest
- slaughter weight, rank among treatments [2, 9]: lowest slaughter weight
- effect of nitrate level on carcass yield ([2]; P<0.05): quadratic effect
- effect of nitrate level on full weight ([2]; P<0.05): quadratic effect
- effect of nitrate level on slaughter weight ([2]; P<0.05): quadratic effect
- Backfat [2, 5]: 18.7 mm
- Carcass weight [2, 5]: 100.2 kg
- Lean meat [2, 5]: 56.1%
- Muscle [2, 5]: 68.6 mm
- Slaughter weight [2, 5]: 122.8 kg
- Weight full [2, 5]: 125.0 kg
- Carcass yield [2, 5]: 81.7%
- Backfat [2, 6]: 18.9 mm
- Carcass weight [2, 6]: 101.2 kg
- Lean meat [2, 6]: 55.9%
- Muscle [2, 6]: 68.5 mm
- Slaughter weight [2, 6]: 124.9 kg
- Weight full [2, 6]: 127.6 kg
- Carcass yield [2, 6]: 81.2%
- carcass weight compared to the other treatments ([2]; normal temperature, 0.063%): higher carcass weight
- Backfat [2, 7]: 20.3 mm
- Carcass weight [2, 7]: 105.1 kg
- Lean meat [2, 7]: 55.0%
- Muscle [2, 7]: 67.8 mm
- Slaughter weight [2, 7]: 126.0 kg
- Weight full [2, 7]: 128.2 kg
- Carcass yield [2, 7]: 83.6%
- Backfat [2, 8]: 16.8 mm
- Carcass weight [2, 8]: 99.5 kg
- Lean meat [2, 8]: 57.4%
- Muscle [2, 8]: 69.3 mm
- Slaughter weight [2, 8]: 127.3 kg
- Weight full [2, 8]: 129.6 kg
- Carcass yield [2, 8]: 78.3%
- effect of calcium nitrate level on weight ([3]; day 83 and 101, P<0.05): quadratic effect
- FCR ([3]; overall period (24-101 days), nitrate level 1 (0.063%), heat stress conditions, tendency P=0.09): better FCR
- FCR with increasing level of calcium nitrate in the diet ([3]; phase 2 (d24-59) and whole trial (d24-101), P<0.05): linearly increased
- effect of calcium nitrate level on ADG ([3]; phase 3 (d59-101), P<0.10): tended to show a quadratic effect
- effect of calcium nitrate level on ADFI ([3]; phase 3 and whole trial, P<0.05): quadratic effect
- effect of calcium nitrate level on ADG ([3]; whole trial (d24-101), P<0.05): quadratic effect
- effect on hemoglobin or met-hemoglobin in the blood [4, 10]: no effect
- effect on meat and liver NO content and on meat color, smell or taste [4, 10]: no effect
- level of nitrate in swine feed that can be dosed safely ([4]; swine feed): ≥ 0.1%

— patent US12004538B2, “Method for improving meat quality” (CAN TECHNOLOGIES, INC., priority 2017, dated 2024)
